# Experimental data as given in US20070167399A1, “Therapeutic drug for traumatic neural disease (disorder) and/or motor function disorder” (Glycoscience Laboratories, Inc., priority 2006, published 2007).
# Tests used:
# [1] = system: interleukin-12 (IL-12); settings: reported by Asari et al. (Xu H et al. (2005)); cited from earlier work
# [2] = system: rat spinal cord injury model; assay: Hind limb motor function (BBB scale) in rat spinal cord injury model, crush method with forceps; type: in vivo; settings: 60 μg/animal into the dura, seventh day after spinal cord injury, compared with physiological saline-administered group
# Procedure: (§1) A spinal cord injury model (crush model with forceps) was prepared as described below. Twelve-week-old male Wistar rats were used as experimental animals. The animals were shaved from neck to hip with an electric clipper under pentobarbital anesthesia (50 mg/kg body weight) and the skin was cleansed with 70% ethanol and Isodine (product of Meiji Seika Kaisha, Ltd.). After dorsal skin incision, the thoracic spine from T5 to T10 was exposed, the sixth thoracic spine (T6 thoracic spine) was subjected to hemi-laminectomy, and a small incision was made on the dura. Following local anesthesia with Xylocaine (Astra Zeneca), a forceps (with the tip trimmed to 0.3 mm) was inserted at the position of T6 until its tip reached the vertebral body, and the spinal cord was crushed by sandwiching it from both sides for 10 sec. […]
# After injury of the spinal cord, the hind limb motor function was assessed daily for 7 days by two independent blind examiners according to the method of Basso et al. (refer to Basso D M et al (1995), (1996)) using Basso-Beeattie-Bresnahan (BBB) Scale, and their average score was taken as a final assessment score. […]
# The BBB score was evaluated using Tukey's nonparametric multiple comparison test.
# [3] = system: rat spinal cord injury model; assay: Spinal cord evoked potential (SCEP) in rat spinal cord injury model, crush method with forceps; type: in vivo; settings: 60 μg/animal into the dura, seventh day after spinal cord injury, compared with saline-administered group
# Procedure: as §1
# On the seventh day after the injury of the spinal cord, endotracheal intubation was performed into the experimental animal under halothane anesthesia (4.0% at the beginning, 1.0% during maintenance). […] Catheter electrodes were inserted into the experimental animal from the space between the second/third cervical vertebrae and the space between the 13th thoracic vertebra/first lumbar vertebra, and spinal cord evoked potential (SCEP) was measured with an electromyograph (Counterpoint, Dantec) after applying a supramaximal stimulus (stimulus frequency; 1 Hz, duration; 0.05 msec). […]
# [4] = system: MRL-lpr/lpr mouse; settings: administration of L4; Xu H et al. (2005); cited from earlier work
structure (smiles),measurement,setting,value
"CC(=O)N[C@H]1C(O)O[C@H](COS(=O)(=O)O)[C@@H](O[C@@H]2O[C@H](COS(=O)(=O)O)[C@H](O)[C@H](O)[C@H]2O)[C@@H]1O (stereo partly drawn) [L4, Gal(6S)β1-4GlcNAc(6S)]",effect on interleukin-12 (IL-12) expression,[1],has an inhibitory effect on interleukin-12 (IL-12) expression
same,hind limb motor function (BBB score),[2],significant recovery in hind limb motor function (P<0.001)
same,spinal cord evoked potential (SCEP) amplitude,[3],a tendency for a recovery in the SCEP amplitude
same,IL-12 concentration in the blood,[4],reduces IL-12 concentration in the blood
same,cell death of T lymphocytes,[4],induces cell death of T lymphocytes
same,size of lymphatic organs (lymph node and spleen),[4],causes shrinking of lymphatic organs
